{"source": "patent US11771685B2", "about": "“Compounds for the treatment of neurological or mitochondrial diseases” (MUSC FOUNDATION FOR RESEARCH DEVELOPMENT, priority 2018, dated 2023)", "test_system": "6 Hz 40 V electrically-induced seizures in rats", "assay": "Rat 6 Hz 40 V seizure model", "type": "in vivo", "description": "In particular, using (i) electrical model to test for seizures in mice and, separately, (ii) in rat 6 Hz 40V model. More specifically, NT-102 was injected (i.p.) in 5% DMSO/95% Miglyol 840 as vehicle. Mice were challenged with 6 Hz 44 mA current to see if seizures would result. […] The Time of Peak Effect (TPE) was observed 1 hour. Additional data is shown below in Table 5. The mice were administered the NT-102 at various doses and placed on the rotarod (i.e., “Rotarod (Tox)”) to test if the mice would fall off as a model of due to the effects of NT-102; for the “Rotarod(Tox)” results, the “NIT” indicates the number of mice that fell off the rotarod (e.g., for Rotarod(Tox) results, if N/T is 0/8, then zero out of eight mice fell off). For the electrical stimulation data (i.e., “6 Hz 44 mA”), an electrical stimulation of 6 Hz 44 mA was administered. […] The 44 mA electrical dosage was used since it is considered to be a model to test for medication-resistant epilepsy.\nThe 6 Hz 40 V electrical stimulation amount was used because this electrical dosage is considered to be a rat model for medication-resistant epilepsy."}
{"molecule": "CC(C)CCNC1=CC(=O)c2ccccc2C1=O", "note": "[Compound 17, 2-(Isopentylamino)naphthalene-1,4-dione]", "values": [{"measurement": "6 Hz 40 V N/T, rats protected", "setting": "200 mg/kg, 1 hr", "result": "1/8"}, {"measurement": "6 Hz 40 V N/T, rats protected", "setting": "250 mg/kg, 1 hr", "result": "2/8"}, {"measurement": "6 Hz 40 V N/T, rats protected", "setting": "300 mg/kg i.p., 0.25 hr", "result": "3/8"}, {"measurement": "6 Hz 40 V N/T, rats protected", "setting": "300 mg/kg i.p., 0.5 hr", "result": "0/8"}, {"measurement": "6 Hz 40 V N/T, rats protected", "setting": "300 mg/kg i.p., 1 hr", "result": "5/8"}, {"measurement": "6 Hz 40 V N/T, rats protected", "setting": "300 mg/kg i.p., 2 hr", "result": "0/4"}, {"measurement": "6 Hz 40 V N/T, rats protected", "setting": "300 mg/kg i.p., 4 hr", "result": "0/4"}, {"measurement": "6 Hz 40 V N/T, rats protected", "setting": "350 mg/kg, 1 hr", "result": "6/8"}, {"measurement": "ED50", "setting": "Rattus norvegicus, 6 Hz 40 V", "result": 293, "unit": "mg/kg"}, {"measurement": "Time to peak result", "setting": "i.p., 6 Hz 40 V", "result": "about one"}]}
